Data on 19 molecules can be found in PMC6301270 (MedChemComm, 2018).

In data set [1] the test system is T.b. brucei (strain 427) bloodstream form parasites. In words: T.b. brucei single concentration screen (10 μM). The settings on record: for viability at 10 µM: Trypanosoma brucei, read-out: T.b.brucei % viability (10 µM); for T.b.brucei % viability (10 µM): single concentration 10 µM, % parasite viability relative to non-treated parasites.
For the next data set, the system named is HeLa cells. Briefly: HeLa cell assay (cytotoxicity). Format: cell-based. The settings on record: Homo sapiens. As for the experimental part:
HeLa cells were cultured in DMEM medium supplemented with 10% fetal bovine serum and antibiotics (penicillin/streptomycin/amphotericin B) at 37 °C in a 5% CO2 incubator. On the day prior to compound addition, cells were plated in 96-well plates at 2 × 10^4 cells per well. Compounds were added to the cells in 3-fold serial dilutions and incubation at 37 °C in a 5% CO2 incubator continued for 48 hours. Twenty μl resazurin reagent (0.5 mM resazurin in phosphate-buffered saline) was added to each well and, after a 2-hour incubation, fluorescence (Exc560/Em590) was measured in a plate reader. Percentage cell viability in drug-treated wells was calculated from the fluorescent readings obtained relative to those in wells containing control, untreated cells. Plots of % cell viability vs. log[compound] were used to determine IC50 values by non-linear regression analysis using GraphPad Prism.

Data set [2] relates to M. tuberculosis CTP synthase, PyrG. More on the design: method as in PMID 28475832. The settings on record: cited from earlier work.
Data set [3] has as its system T.b. brucei. More on the design: method as in PMID 28674055. The settings on record: cited from earlier work; for IC50: Table 1, kinetoplastid category of the Pathogen Box, read-out: T. brucei brucei IC50 (μM) Duffy et al.
For data set [4], the system named is T.b. brucei (strain 427) bloodstream form parasites. In words: Trypanosoma brucei assay, dose–response (this study). The conditions noted are these: for IC50: Trypanosoma brucei; for Selectivity index: calculated as IC50(HeLa)/IC50(T.bb). Format: cell-based.
The next data set has as its system HepG2 cells. More on the design: method as in Pathogen Box. The conditions noted are these: ref Pathogen Box, read-out: CC50 against HepG2 cells; cited from earlier work.
The subject of data set [5] is T.b. brucei. More on the design: method as in https://www.pathogenbox.org/. The settings on record: ref https://www.pathogenbox.org/, cited from earlier work; for IC50: Table 1, kinetoplastid category, read-out: T. brucei brucei IC50 (μM) Pathogen Box.
The subject of a further data set is kinetoplastid. More on the design: method as in PMID 25740547. The conditions noted are these: screen of 1.8 million compounds; cited from earlier work.
For the next data set, the system named is mycobacterial. More on the design: method as in PMID 23268609. The conditions noted are these: inhibits the ATPase domain of DNA gyrase B; cited from earlier work.
[6] abbreviates: HeLa, 48 h, read-out: HeLa IC50 (μM).
Where [7] appears, read: Table 2, HeLa cells, 48 hours, resazurin, read-out: HeLa IC50.
Where [8] appears, read: Table 2, remaining Pathogen Box, 48 hours at 37 °C, resazurin, read-out: T. brucei brucei IC50 (μM) This study.
The mark [9] stands for this setting: pIC50 values (M), read-out: pIC50 (T.b. brucei), this study (converted).
[10] abbreviates: Table 1, HeLa cells, 48 hours, resazurin, read-out: HeLa IC50.
Where [11] appears, read: Table 1, kinetoplastid category, 48 hours at 37 °C, resazurin, read-out: T. brucei brucei IC50 (μM) This study.

“Also recorded” adds a separate entry of the source. Like-named read-outs stand apart in the source and are kept apart here. Bounds are passed on as bounds.

Consider `O=C(COc1cccc(F)c1)Nc1nc(-c2ccccn2)cs1` [Compound 43, Fc1cccc(OCC(=O)Nc2nc(cs2)c3ccccn3)c1], for which, in data set [1], the viability at 10 µM worked out at 3%. In the data set with HeLa cells (setting [6]), the IC50 was over 25 µM. Moreover, the “Inhibition of M. tuberculosis CTP synthase, PyrG” value in data set [2] is recorded as “moderate inhibitors”.
`O=C(Nc1ccc(C(F)(F)F)c(C(F)(F)F)c1)c1cc(Cl)ccc1O` [Compound 66, Oc1ccc(Cl)cc1C(=O)Nc2ccc(c(c2)C(F)(F)F)C(F)(F)F]: the viability at 10 µM in [1] amounted to 42%. The “T.b. brucei inhibition in words, Duffy et al.” value in the data set on T.b. brucei [3] is “sub-micromolar inhibitor”.
Consider `CCc1c(C)nc(-n2nc(C)cc2NC(=O)c2ccccc2SC)[nH]c1=O` [Compound 39, CCC1=C(C)N=C(NC1=O)n2nc(C)cc2NC(=O)c3ccccc3SC], for which the viability at 10 µM in data set [1] stood at 2%. The IC50 in the data set with HeLa cells (setting [7]) was 2.6 µM; in data set [4] (setting [8]), 0.59 µM; in data set [4] (setting [9]), under 1 µM. The “T.b. brucei inhibition in words, this study” value in [4] is given as “sub-micromolar inhibitors; also recorded: sub-micromolar range”. For the same molecule, the Selectivity index in data set [4] is given as 4.4. The CC50 in the data set on HepG2 cells is 1.3 µM.
Consider `CC(Oc1ccccc1)C(=O)Nc1nc(-c2ccccn2)cs1` (centres unmarked) [Compound 40, CC(Oc1ccccc1)C(=O)Nc2nc(cs2)c3ccccn3], for which the viability at 10 µM in [1] turned out to be 2%. Moreover, the figures for the IC50 (with HeLa cells (setting [7]); in data set [4] (setting [8]); in data set [4] (setting [9])) were 8.4 µM, 0.76 µM and under 1 µM, respectively. For the same molecule, the “T.b. brucei inhibition in words, this study” value in data set [4] is given as “sub-micromolar range”. In addition, in data set [2], the “Inhibition of M. tuberculosis CTP synthase, PyrG” value is recorded as “moderate inhibitors”.
`COc1ccc(C2=NN(C3CCCCCC3)C(=O)[C@@H]3CC=CC[C@H]23)cc1OCCCCOc1ccc(-c2nnn[nH]2)cc1` [Compound 15, COC1=C(OCCCCOC2=CC=C(C3=NNN=N3)C=C2)C=C(C([C@@H]4[C@H]5CC=CC4)=NN(C6CCCCCC6)C5=O)C=C1]: the viability at 10 µM in data set [1] was 6%. Further, the IC50 was over 25 µM in the data set with HeLa cells (setting [6]); 0.12 µM in data set [4] (48 h, read-out: T. brucei brucei IC50 (μM) This study); 0.02 µM in the data set on T.b. brucei [5].
Consider `CCOC(=O)c1noc(N)c1-c1ccccc1` [Compound 34, CCOC(=O)c1noc(N)c1c2ccccc2], for which the viability at 10 µM in data set [1] came out at 12%. Further, the IC50 is over 25 µM with HeLa cells (setting [10]), 0.41 µM in data set [4] (setting [11]) and 1.22 µM with T.b. brucei [5]. The “T.b. brucei inhibition in words, this study” value in [4] is reported as “mid-nanomolar inhibitor”. In addition, in the data set on T.b. brucei [5], the “T.b. brucei activity in words, Pathogen Box” value is “low micromolar range”.
Take `Cc1noc(C)c1COc1cccc(C(=O)N=c2[nH]cccc2C)c1` [Compound 20, Cc1onc(C)c1COc2cccc(c2)C(=O)Nc3ncccc3C]: the viability at 10 µM in data set [1] turned out to be 7%. Besides, the results for the IC50 (in the data set on HeLa cells (setting [10]); in [4] (setting [11]); with T.b. brucei [5]) were over 25 µM, 0.62 µM and 2.07 µM, respectively.
Turning to `Cc1ccc(S(=O)(=O)Nc2ccc(CN3CCN(C(=O)c4cccc(C#N)c4)CC3)cc2)cc1` [Compound 11, O=C(N1CCN(CC2=CC=C(NS(=O)(C3=CC=C(C)C=C3)=O)C=C2)CC1)C4=CC(C#N)=CC=C4], in data set [1], the viability at 10 µM was 6.6%. Further, the results for the IC50 (in the data set on HeLa cells (setting [10]); in [4] (setting [11]); in the data set on T.b. brucei [5]) were over 25 µM, 0.12 µM and 0.14 µM, respectively.
For the molecule `O=C(Nc1ccccc1)c1ccc(-c2cc3ccncc3cc2OC2CCNCC2)s1` [Compound 51, O=C(Nc1ccccc1)c2ccc(s2)c3cc4ccncc4cc3OC5CCNCC5], in data set [1], the viability at 10 µM stood at 1%. Moreover, the “T.b. brucei inhibition in words, Duffy et al.” value in the data set with T.b. brucei [3] is on record as “moderate inhibition”. Moreover, the IC50 in the data set with HeLa cells (setting [7]) was determined as 7.5 µM. In data set [4], the “T.b. brucei inhibition in words, this study” value was “selectively inhibited T.b. brucei, albeit moderately” and the Selectivity index is listed as 7.5. Moreover, the IC50 in data set [4] (setting [8]) came out at 1 µM.
Regarding TCMDC 142497 [Compound 70], the Kinetoplastid inhibition entry in the data set with kinetoplastid is on record as “potent kinetoplastid inhibitor”.
Turning to `c1ccc(Oc2ccc(-c3cc(N4CCNCC4)[nH]n3)cc2)cc1` [Compound 30, C1CN(CCN1)c2cc(n[nH]2)c3ccc(Oc4ccccc4)cc3], the viability at 10 µM in [1] was 0.3%. For the same molecule, the IC50 in the data set with HeLa cells (setting [10]) is 11 µM; in [4] (setting [11]), 2.3 µM; with T.b. brucei [5] it was 0.99 µM.
Turning to `CCC(=O)Nc1ccccc1C(=O)Nc1ccccn1` [Compound 17, CCC(=O)Nc1ccccc1C(=O)Nc2ccccn2], the viability at 10 µM in data set [1] stood at 7%. Moreover, the IC50 is over 25 µM in the data set on HeLa cells (setting [10]), 0.38 µM in [4] (setting [11]) and 2.46 µM in the data set with T.b. brucei [5].
As for `CNC(=O)C1Cc2ccccc2N1C(=O)Cc1ccc(F)cc1` (centres unmarked) [Compound 22, CNC(=O)C1Cc2ccccc2N1C(=O)Cc3ccc(F)cc3], the viability at 10 µM in data set [1] is 7%. In addition, the results for the IC50 (in the data set on HeLa cells (setting [10]); in data set [4] (setting [11]); in the data set on T.b. brucei [5]) were over 25 µM, 0.71 µM and 0.49 µM, respectively.
For the molecule `CC1=Nc2ccc(Cl)cc2C(O)(c2ccc(C)cc2)N1CCN1CCCCC1` (centres unmarked) [Compound 29, CC1=Nc2ccc(Cl)cc2C(O)(N1CCN3CCCCC3)c4ccc(C)cc4], the viability at 10 µM in data set [1] was determined as 2%. The IC50 was 15 µM in the data set with HeLa cells (setting [10]), 0.98 µM in data set [4] (setting [11]) and 0.98 µM with T.b. brucei [5].
Take `Cc1nn2c(=O)c3c([nH]c2c1-c1ccc(Cl)cc1)CCCC3` [Compound 24, Cc1nn2C(=O)C3=C(CCCC3)Nc2c1c4ccc(Cl)cc4]: in data set [1], the viability at 10 µM came to 19% and the “T.b.brucei % viability (10 µM)” value is given as “did not sufficiently reduce cell viability”. Further, the IC50 in the data set with T.b. brucei [3] was at least 1 µM. Besides, the “T.b. brucei activity in words, Pathogen Box” value with T.b. brucei [5] was “sub-micromolar range”.
With `CCCCN(CCCC)c1c(C#N)cc(S(=O)(=O)Nc2ccccc2)cc1C#N` [Compound 19, CCCCN(CCCC)c1c(cc(cc1C#N)S(=O)(=O)Nc2ccccc2)C#N], in data set [1], the viability at 10 µM came to 6%. For the same molecule, the values for the IC50 (in the data set with HeLa cells (setting [10]); in data set [4] (setting [11]); in the data set on T.b. brucei [5]) were over 25 µM, 1.3 µM and 0.26 µM, respectively.
For `c1ccc(Oc2ccc(-c3cc(C4CCOCC4)[nH]n3)cc2)cc1` [Compound 23, C1CC(CCO1)c2cc(n[nH]2)c3ccc(Oc4ccccc4)cc3], in data set [1], the viability at 10 µM was 82% and the “T.b.brucei % viability (10 µM)” value is given as “did not sufficiently reduce cell viability”. Besides, in the data set on T.b. brucei [3], the IC50 is at least 1 µM. Moreover, in the data set on T.b. brucei [5], the IC50 was 7.58 µM.
With `CN1CCN(CCCOc2ncc(Nc3ncc(-c4ccc(C(F)(F)F)c(F)c4)nc3C(N)=O)cn2)CC1` [Compound 46, CN1CCN(CCCOc2ncc(Nc3ncc(nc3C(=O)N)c4ccc(c(F)c4)C(F)(F)F)cn2)CC1], the viability at 10 µM in data set [1] was 3%. The “In vitro anti-mycobacterial activity” value with mycobacterial is given as “potent”. In addition, the IC50 in the data set with HeLa cells (setting [7]) was 4.8 µM; in data set [4] (setting [8]) it was 0.87 µM; in data set [4] (setting [9]) it was under 1 µM. The “T.b. brucei inhibition in words, this study” value in [4] was “sub-micromolar inhibitors; also recorded: sub-micromolar range”. Besides, the Selectivity index in data set [4] is recorded as 5.5. Further, the CC50 in the data set with HepG2 cells was 3.9 µM.
With `CS(=O)(=O)c1ccccc1C(=O)N(Cc1ccccc1)c1ccccc1` [Compound 14, CS(=O)(=O)c1ccccc1C(=O)N(Cc2ccccc2)c3ccccc3], the viability at 10 µM in data set [1] is 18%. Also, the IC50 with HeLa cells (setting [10]) is over 25 µM; in data set [4] (setting [11]), 1.2 µM; in the data set on T.b. brucei [5] it was 0.56 µM.
